# Source: US9890185B2, “Urea derivatives useful as kinase inhibitors” (Respivert Limited, priority 2013, dated 2018)
# Experiments:
# [1] = molecular target: p38 MAPKα isoform (MAPK14) (Homo sapiens (Human), UniProt Q16539); experiment: p38 MAPKα enzyme inhibition (FRET, Z-LYTE, Method 2); assay type: biochemical
# Procedure, shortened: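 Z-LYTE FRET: p38 MAPKα (80 ng/mL for Method 1, 200 ng/mL for Method 2, pre-dilution) preincubated 2 hr RT with compound (4–0.004 μg/mL solutions), activity read via MAPKAP-K2 phosphorylation after 1 hr RT and 1 hr protease development. Coumarin/fluorescein ratio gives phosphorylation; % inhibition versus uninhibited control, IC50 from concentration-response curve.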
# Syk = Syk (Homo sapiens (Human), UniProt P43405); experiment: Syk enzyme inhibition (FRET, Z-LYTE); assay type: biochemical
# Procedure, shortened: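 c-Src (3000 ng/mL) or Syk (2000 ng/mL) stock was preincubated with compound (4–0.004 μg/mL stocks) for 2 hr at RT. FRET peptide (8 μM stock) and ATP (800 μM c-Src, 60 μM Syk, as added) were then added for 1 hr, followed by 1 hr protease development. The coumarin/fluorescein emission ratio gave % inhibition and IC50.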
# GSK 3α = GSK 3α (Homo sapiens (Human), UniProt P49840); experiment: GSK 3α enzyme inhibition (FRET, Z-LYTE, Method 2); assay type: biochemical; conditions: read-out: IC50 Values for Enzyme Inhibition, GSK3α
# Chain of GSK 3α (P49840 whole entry): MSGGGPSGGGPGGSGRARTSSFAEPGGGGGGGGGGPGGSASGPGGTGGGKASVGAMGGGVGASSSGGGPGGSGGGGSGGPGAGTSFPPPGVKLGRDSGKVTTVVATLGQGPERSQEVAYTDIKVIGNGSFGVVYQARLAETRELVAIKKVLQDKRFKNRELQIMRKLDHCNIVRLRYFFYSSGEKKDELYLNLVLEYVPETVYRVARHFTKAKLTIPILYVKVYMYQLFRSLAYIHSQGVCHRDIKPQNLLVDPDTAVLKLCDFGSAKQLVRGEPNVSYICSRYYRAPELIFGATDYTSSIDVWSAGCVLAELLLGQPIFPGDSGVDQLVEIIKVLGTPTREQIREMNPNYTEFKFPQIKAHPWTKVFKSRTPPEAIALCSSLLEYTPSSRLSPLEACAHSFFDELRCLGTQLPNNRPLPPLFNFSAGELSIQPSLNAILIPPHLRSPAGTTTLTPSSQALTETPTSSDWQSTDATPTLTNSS
# Procedure, shortened: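 Recombinant human GSK3α was preincubated with compound (stocks 4, 0.4, 0.04 or 0.004 μg/mL) at RT, 2 hr for Method 1 and 105 min for Method 2. FRET peptide (8 μM stock) and ATP (40 μM stock) were added for 1 hr, then protease development for 1 hr. IC50 was taken from concentration–response curves.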
# PBMCs = experiment: Cell mitosis assay in PBMCs (assay g); assay type: cell-based; conditions: Homo sapiens, PBMC, test compound 5 μg/mL
# Procedure, shortened: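 Human PBMCs from healthy donors, stimulated with 2% PHA for 48 hr, then exposed to test compounds for 20 hr, with demecolcine (0.1 μg/mL) added 2 hr before harvest. Cells fixed/permeabilised, stained for phospho-histone 3 and propidium iodide, and read by flow cytometry gated on lymphocytes. % mitosis inhibition vs 0.5% DMSO vehicle.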
# d-U937 cells = experiment: Accumulation of β catenin in d-U937 cells (assay m); assay type: cell-based, human; conditions: percentage relative to Reference Compound at 1 μg/mL
# Procedure, shortened: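 PMA-differentiated (100 ng/mL, 48–72 hr) human U937 macrophage-type cells treated with test compound or vehicle for 18 hr. β-catenin measured by in-cell ELISA (anti-β-catenin, HRP secondary, TMB, OD450–655). Signal corrected for cell number by dividing by crystal violet OD595.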
# Chain of p38 MAPKα isoform (MAPK14) (Q16539 whole entry, canonical isoform): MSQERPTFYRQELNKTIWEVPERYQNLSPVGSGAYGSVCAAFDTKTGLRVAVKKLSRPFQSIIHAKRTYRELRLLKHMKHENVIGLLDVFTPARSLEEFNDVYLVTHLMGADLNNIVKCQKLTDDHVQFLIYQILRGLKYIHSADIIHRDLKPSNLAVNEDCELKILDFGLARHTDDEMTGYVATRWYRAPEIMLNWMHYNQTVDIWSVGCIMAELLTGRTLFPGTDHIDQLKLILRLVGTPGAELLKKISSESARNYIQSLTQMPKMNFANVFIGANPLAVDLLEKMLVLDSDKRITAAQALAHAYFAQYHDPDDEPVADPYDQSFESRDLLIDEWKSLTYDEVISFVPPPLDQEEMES
SMILES,IC50 [1] [nM],IC50 (Syk) [nM],IC50 (GSK 3α) [nM],inhibition at 5 µg/mL (PBMCs) [%],% β-catenin induction (d-U937 cells; test compound 1 μg/mL) [%],% β-catenin induction (d-U937 cells; test compound 5 μg/mL) [%],% β-catenin induction (d-U937 cells; test compound 10 μg/mL) [%]
"COc1c(CNC(C)=O)cc(C(C)(C)C)cc1NC(=O)Nc1ccc(Oc2ccnc(NCc3ccccn3)c2)c2ccccc12 [38(q), N-(5-(tert-Butyl)-2-methoxy-3-(3-(4-((2-((pyridin-2-ylmethyl)amino)pyridin-4-yl)oxy)naphthalen-1-yl)ureido)benzyl)acetamide]",6,> 1620,1500,82.1,11.5,41.5,57.5
"C#Cc1cc(Nc2cc(Oc3ccc(NC(=O)Nc4cc(C(C)(C)C)cc(P(C)(C)=O)c4OC)c4ccccc34)ccn2)cc(C(=O)NCCOCCOCCOC)c1 [Example 3, 3-((4-((4-(3-(5-(tert-Butyl)-3-(dimethylphosphoryl)-2-methoxyphenyl)ureido)naphthalen-1-yl)oxy)pyridin-2-yl)amino)-5-ethynyl-N-(2-(2-(2-methoxyethoxy)ethoxy)ethyl)benzamide]",91,> 1220,4900,29.4,5.7,9.7,7.3
"COCCOCCOCCOc1cc(Nc2nccc(Oc3ccc(NC(=O)Nc4cc(C(C)(C)C)cc(OCP(C)(C)=O)c4OC)c4ccccc34)n2)cc(OC)c1 [Example 6, 1-(5-(tert-Butyl)-3-((dimethylphosphoryl)methoxy)-2-methoxyphenyl)-3-(4-((2-((3-methoxy-5-(2-(2-(2-methoxyethoxy)ethoxy)ethoxy)phenyl)amino)pyrimidin-4-yl)oxy)naphthalen-1-yl)urea]",211,58,1200,52.4,1.0,29.0,65.0
"COCCOCCOCCOc1cc(Nc2nccc(Oc3ccc(NC(=O)Nc4cc(C(C)(C)C)cc(C(=O)NCCN5CCOCC5)c4OC)c4ccccc34)n2)cc(OC)c1 [Example 8, 5-(tert-Butyl)-2-methoxy-3-(3-(4-((2-((3-methoxy-5-(2-(2-(2-methoxyethoxy)ethoxy)-ethoxy)phenyl)amino)pyrimidin-4-yl)oxy)naphthalen-1-yl)ureido)-N-(2-morpholinoethyl)-benzamide]",188,42,788,58.1,2.5,22.5,26.5
"COc1c(NC(=O)Nc2ccc(Oc3ccnc(Nc4ccccc4)c3)c3ccccc23)cc(C(C)(C)C)cc1P(C)(C)=O [Example 11, 1-(5-(tert-Butyl)-3-(dimethylphosphoryl)-2-methoxyphenyl)-3-(4-((2-(phenylamino)pyridin-4-yl)oxy)naphthalen-1-yl)urea]",141,186,3830,61,5.0,19.7,27.3
"COc1c(CC(N)=O)cc(C(C)(C)C)cc1NC(=O)Nc1ccc(Oc2ccnc(Nc3ccccc3)c2)c2ccccc12 [Example 13, 2-(5-(tert-Butyl)-2-methoxy-3-(3-(4-((2-(phenylamino)pyridin-4-yl)oxy)naphthalen-1-yl)ureido)phenyl)acetamide]",108,1390,7580,13.9,−4.0,6.5,9.5
"COc1c(NC(=O)Nc2ccc(Oc3ccnc(Nc4ccccc4)c3)c3ccccc23)cc(C(C)(C)C)cc1C(=O)NCCN1CCOCC1 [Example 14, 5-(tert-Butyl)-2-methoxy-N-(2-morpholinoethyl)-3-(3-(4-((2-(phenylamino)pyridin-4-yl)oxy)naphthalen-1-yl)ureido)benzamide]",392,364,> 10100,51.9,−0.5,22.0,25.5
"COCCOCCOCCOc1cc(Nc2cc(Oc3ccc(NC(=O)Nc4cc(C(C)(C)C)cc(C(=O)NCCN5CCOCC5)c4OC)c4ccccc34)ccn2)cc(OC)c1 [Example 16, 5-(tert-Butyl)-2-methoxy-3-(3-(4-((2-((3-methoxy-5-(2-(2-(2-methoxyethoxy)ethoxy)ethoxy)-phenyl)amino)pyridin-4-yl)oxy)naphthalen-1-yl)ureido)-N-(2-morpholinoethyl)benzamide]",230,93,5670,43.3,0.0,−3.0,−6.5
"COc1c(CS(C)(=O)=O)cc(C(C)(C)C)cc1NC(=O)Nc1ccc(Oc2ccnc(Nc3ccccc3)c2)c2ccccc12 [Example 19, 1-(5-(tert-Butyl)-2-methoxy-3-((methylsulfonyl)methyl)phenyl)-3-(4-((2-(phenylamino)pyridin-4-yl)oxy)naphthalen-1-yl)urea]",208,189,> 16000,36.9,2.5,9.0,13.0
"COc1cc(Nc2nccc(Oc3ccc(NC(=O)Nc4cc(C(C)(C)C)cc(OCP(C)(C)=O)c4OC)c4ccccc34)n2)cc(OC)c1 [Example 20, 1-(5-(tert-Butyl)-3-((dimethylphosphoryl)methoxy)-2-methoxyphenyl)-3-(4-((2-((3,5-dimethoxyphenyl)amino)pyrimidin-4-yl)oxy)naphthalen-1-yl)urea]",368,188,2060,55,2.5,20.5,16.5

# Continued, in another order:
IC50 [1] [nM],IC50 (Syk) [nM],IC50 (GSK 3α) [nM],SMILES,inhibition at 5 µg/mL (PBMCs) [%],% β-catenin induction (d-U937 cells; test compound 1 μg/mL) [%],% β-catenin induction (d-U937 cells; test compound 5 μg/mL) [%],% β-catenin induction (d-U937 cells; test compound 10 μg/mL) [%]
51,53,2820,"COCCOCCOCCOc1cc(Nc2cc(Oc3ccc(NC(=O)Nc4cc(C(C)(C)C)cc(P(C)(C)=O)c4OC)c4ccccc34)ccn2)cc(OC)c1 [Example 2, 1-(5-(tert-Butyl)-3-(dimethylphosphoryl)-2-methoxyphenyl)-3-(4-((2-((3-methoxy-5-(2-(2-(2-methoxyethoxy)ethoxy)ethoxy)phenyl)amino)pyridin-4-yl)oxy)naphthalen-1-yl)urea]",58.9,4.0,32.5,31.5
290,233,> 10700,"COCCOCCOCCOc1cc(Nc2cc(Oc3ccc(NC(=O)Nc4cc(C(C)(C)C)cc(S(C)(=O)=O)c4OC)c4ccccc34)ccn2)cc(OC)c1 [Example 9, 1-(5-(tert-Butyl)-2-methoxy-3-(methylsulfonyl)phenyl)-3-(4-((2-((3-methoxy-5-(2-(2-(2-methoxyethoxy)ethoxy)ethoxy)phenyl)amino)pyridin-4-yl)oxy)naphthalen-1-yl)urea]",50.8,4.5,5.5,0.0
45,> 887,> 8340,"COCCOCCOCCOc1cc(Nc2cc(Oc3ccc(NC(=O)Nc4cc(C(C)(C)C)cc(P(C)(C)=O)c4)c4ccccc34)ccn2)cc(OC)c1 [Example 10, 1-(3-(tert-Butyl)-5-(dimethylphosphoryl)phenyl)-3-(4-((2-((3-methoxy-5-(2-(2-(2-methoxy-ethoxy)ethoxy)ethoxy)phenyl)amino)pyridin-4-yl)oxy)naphthalen-1-yl)urea]",39.3,−2.5,−6.0,−4.0
68,134,10300,"COCCOCCOCCOc1cc(Nc2cc(Oc3ccc(NC(=O)Nc4cc(C(C)(C)C)cc([S+](C)[O-])c4OC)c4ccccc34)ccn2)cc(OC)c1 (centres unmarked) [Example 17, 1-(5-(tert-Butyl)-2-methoxy-3-(methylsulfinyl)phenyl)-3-(4-((2-((3-methoxy-5-(2-(2-(2-methoxyethoxy)ethoxy)ethoxy)phenyl)amino)pyridin-4-yl)oxy)naphthalen-1-yl)urea]",41.3,−2.0,−7.0,−5.5
